Reference: patent US9963476B2, “Antioxidant compound having anti atherosclerotic effect and preparation thereof” (Council of Scientific and Industrial Research, priority 2015, dated 2018)

Key:
Apo E−/− mice aorta = assay: Mito-Esc quantified by ESI-MS in cytosolic and mitochondrial fractions of ApoE−/− mice aortic tissue; assay type: in vivo; settings: 0.5 mg/kg/day in drinking water
Experimental: After the treatment, cells were washed thrice with PBS. Similarly Mito-Esculetin+ Ang-II treatment group, Ang-II alone treatment group and control Apo E^-/- mice aortic tissue was taken. The isolation of mitochondrial and cytosolic extracts was carried out using a commercially available Proteo Extract Cytosol/Mitochondria Fractionation Kit (Cat. no. QIA88-Merck, USA) according to manufacturer's instructions. Initially, mitochondrial and cytosolic fractions were separated using a commercially available kit as mentioned elsewhere. Mito-Esc was quantified in the mitochondrial and cytosolic fractions obtained from HAEC and aorta of ApoE^-/- mice of different treatment groups as mentioned in Animal Experiments section (Table-1). Electrospray ionization (ESI)-MS. ESI-MS (positive mode) measurements were performed using a quadrupole time-of-flight mass spectrometer (QSTAR XL, Applied Biosystems/MDS Sciex, Foster City, Calif., USA). The data acquisition was under the control of Analyst QS software (Applied Biosystems). For the CID (collision-induced dissociation) experiments, the precursor ions were selected using the quadrupole analyzer and the product ions were analyzed using the TOF analyzer.

[1] = test system: Ang-II-induced atherosclerosis in ApoE−/− mice; assay: Serum lipid profile of Ang-II treated ApoE−/− mice; assay type: in vivo
Experimental: (§1) Experiments were conducted in 2-month-old male apolipoprotein E knockout (ApoE^−/−) mice according to the guidelines formulated for care and use of animals in scientific research (ICMR, New Delhi, India) at a CPCSEA (Committee for the Purpose of Control and Supervision of Experiments on Animals) registered animal facility. […] Animals were randomly divided into 3 groups each n=7:1) control 2) Ang-II treatment and 3) Mito-Esculetin+Ang-II treatment. Ang-II and Mito-Esculetin treatment groups received Ang-II (sigma) at a dose of 1.44 mg/kg/day for 6 weeks through sub-cutaneous route where as control group received normal saline. Mito-Esculetin treatment group received the compound at a dose of 0.5 mg/kg/day in normal drinking water. All animals were fed on normal chow throughout the study. After 6 weeks, all groups of animals were sacrificed as per standard protocols for euthanasia.
(§2) We further analyzed the vascular remodelling employing histological stains in tissue sections of thoracic aortas. […] In tune with this, we have also measured Mac-3 levels by flow cytometry.

[2] = test system: mitochondrial membrane potential in HAEC; assay: Mitochondrial transmembrane potential (JC-1 / Mito-Sensor dye); assay type: cell-based, human; settings: H2O2 500 μM, 16 h
Experimental: Mitochondrial potential was assessed by using the fluorescent potentiometric JC-1 dye. In healthy cells, JC-1 forms J-aggregates that display a strong red fluorescence with excitation of 560 nm and emission wavelength at 595 nm. In apoptotic or unhealthy cells, JC-1 exists as monomers that display a strong green fluorescence with excitation and emission at 485 nm and 535 nm, respectively. At the end of the treatments, cells were washed with Dulbeccos phosphate buffer solution (DPBS) and incubated with JC-1 dye ([…]) for 20 min. Cells were again washed twice with DPBS and maintained in culture medium. Fluorescence was monitored by using Olympus fluorescence microscope with Rhodamine and Fluorescein isothiocyanate (FITC) filters.
Ang-II is known to increase oxidative stress through increased production of H2O2 (Doughan A K, Harrison D G, Dikalov S I. Circ Res (2008) 102:488-96). […] Further, we assessed the effect of Mito-Esc on H2O2-induced mitochondrial membrane depolarization. HAEC were treated with H2O2 (500 μM) in the presence or absence of Mito-Esc for a period of 16 h and mitochondrial membrane potential was measured using a mitochondrial membrane sensor kit. […] In apoptotic cells, membrane potentials are altered and the Mito-Sensor dye cannot accumulate in mitochondria and, thus, remain as monomers leading to a green fluorescence.

[3] = test system: nitric oxide generation in HAEC; assay: Intracellular nitric oxide levels by DAF-2DA fluorescence; assay type: cell-based, human; settings: 2.5 μM, 4 h
Experimental: Intracellular nitric oxide levels were monitored by using the Diaminofluorescein-diacetate (DAF-2DA) fluorescence probe. After the treatments, cells were washed with DPBS and incubated in fresh culture medium without fetal bovine serum (FBS). DAF-2DA was added at a final concentration of 5 μM, and the cells were incubated for 30 minutes. The cells were washed twice with DPBS and maintained in culture medium. Fluorescence was monitored by using Olympus fluorescence microscope with FITC filter (λex=488 nm and […]). Fluorescence intensity was calculated by Image-Pro plus7.0 software.
To gain mechanistic insight on Mito-Esc-mediated protection of endothelial cells from oxidant-induced endothelial cell death, initially we hypothesized that Mito-Esc may augment intracellular nitric oxide generation. To study this, HAEC were treated with both Mito-Esc and esculetin in the presence or absence of H2O2 for a period of 4 h and nitric oxide (NO) levels were monitored by DAF-2 derived green fluorescence. Previously, it has been shown that DAF-2 forms a fluorescent triazole-type product in the presence of an oxidant derived from nitric oxide and oxygen interaction (Proc. Natl. Acad. Sci. USA 99: 11127-11132; 2002.; Am. J. Physiol. Regul. Integ. Comp. Physiol. 286:R344-R431; 2004). […] Next, we investigated the possible role of endothelial nitric oxide synthase (eNOS) in mediating the Mito-Esc induced NO generation in HAEC. For this, endothelial cells were treated with various concentrations of Mito-Esc (1-5 μM) for a period of 8 h. […] To further substantiate the results of DAF fluorescence, eNOS phosphorylation was measured in HAEC incubated with either with H2O2 or Ang-II for 8 h in cells pretreated with Mito-Esc or native esculetin. It was observed that both H2O2 and Ang-II caused a reduction in Phospho eNOS (Ser-1177) levels (FIG. 4D). Ang-II treatment imposed a drastic inhibition of phospho-eNOS levels when compared to H2O2 treatment in endothelial cells (FIG. 4D).

[4] = test system: AMPK1-α phosphorylation (Thr-172); assay: Western blot of AMPK phosphorylation in HAEC; assay type: cell-based, human
Experimental: Previously, it was shown that AMPK co-immunoprecipitates with cardiac endothelial NO synthase (eNOS) and phosphorylates Ser-1177 in the presence of Ca^2+-calmodulin (CaM) to activate eNOS both in vitro and during ischaemia in rat hearts (FEBS Lett. (1999) 443:285-289). To test whether Mito-Esc mediates increased phosphorylation of eNOS through AMPK activation, initially, HAEC were treated various concentrations of Mito-Esc (1-5 μM) for 8 h and AMPK1-α phosphorylation (Thr-172) levels were measured. […] Next, we investigated the phospho-AMPK1-α levels in HAEC treated with H2O2 in the presence or absence of either Mito-Esc or native esculetin.

SIRT-3, PGC-1α, TFAM = settings: HAEC, 8 h
Experimental: At the end of the treatments, HAECs were washed with ice-cold DPBS and resuspended in RIPA buffer (20 mM Tris-HCl, pH 7.4/2.5 mM EDTA/1% Triton X-100/1% sodium deoxycholate/1% SDS/100 mM NaCl/100 mM sodium fluoride) containing protease inhibitor cocktail and phosphatase inhibitor cocktail-2 and -3. The lysate was centrifuged for 15 min at 12000×g. […] Protein bands were detected by using HRP substrate (Millipore-luminata). All the antibodies used for this study were from CST.
Next we investigated the ability of Mito-Esc to modulate the mitochondrial biogenetic regulators namely, silent mating type information regulation 2 homolog (SIRT)-3, Peroxisome proliferator-activated receptor-gamma coactivator (PGC)-1α and mitochondrial transcription factor A (TFAM).

[5] = test system: TNF-α, IFN-γ, MCP-1, Mac-3; assay: Serum proinflammatory cytokines and Mac-3 levels in ApoE−/− mice
Experimental: as §1, §2

[6] = test system: Ang-II-induced atherosclerosis in ApoE−/− mice; assay: Ang-II-induced aortic aneurysm and atheromatous plaque formation in ApoE−/− mice
Experimental: as §1, §2

[7] = serum, ApoE−/− mice, 45 days, Ang-II alone or Ang-II + Mito-Esc
[8] = ApoE−/− mice, thoracic aorta sections

O=c1cc(CCCCCCCC[P+](c2ccccc2)(c2ccccc2)c2ccccc2)c2cc(O)c(O)cc2o1.[Br-] [Mito-Esc]
Mitochondrial fraction (Apo E−/− mice aorta): 2547 ± 286 nmol/mg protein
Ang-II mediated increase in LDL, VLDL, triglycerides and total cholesterol ([1]; ApoE−/− mice serum): significantly reduced
serum HDL levels ([1]; ApoE−/− mice serum): significant rise
HDL [1, 7]: 45.53 ± 0.4 mg/dL
LDL [1, 7]: 218.40 ± 20.9 mg/dL
Total Cholesterol [1, 7]: 414.85 ± 8.2 mg/dL
Triglycerides [1, 7]: 150.74 ± 3.8 mg/dL
VLDL [1, 7]: 30.15 ± 0.4 mg/dL
H2O2-mediated mitochondrial membrane depolarization [2]: significantly rescued
DAF-2 fluorescence (NO production), compound alone [3]: greatly enhanced
H2O2-mediated depletion of NO levels ([3]; H2O2 500 μM): significantly restored
concentration of maximum effect on phospho-AMPK1-α (Thr-172) levels ([4]; 1-5 μM, 8 h): 2.5 µM
phospho-AMPK1-α (Thr-172) levels ([4]; 1-5 μM, 8 h): dose-dependent increase
Ang-II-mediated inhibition of phospho-AMPK1-α ([4]; Ang-II 500 nM, co-incubation): made cells resistant
AMPK1-α phosphorylation in the presence of H2O2 ([4]; H2O2 500 μM, 2.5 μM, 8 h): greatly enhanced
RNA and protein levels of PGC-1α, TFAM (SIRT-3, PGC-1α, TFAM; 2.5 μM): significantly increased
SIRT-3 levels (SIRT-3, PGC-1α, TFAM; 1-5 μM): significantly increased
Ang-II treatment induced inhibition of PGC-1A, TFAM and SIRT-3 levels (SIRT-3, PGC-1α, TFAM; Ang-II 500 nM, 2.5 μM): significantly reversed
Ang-II-induced proinflammatory cytokines (TNF-α, IFN-γ, MCP-1) production ([5]; ApoE−/− mice serum): significant inhibition
Mac-3 levels by flow cytometry ([5]; ApoE−/− mice, by 30 days of treatment): inhibition of Mac3 levels
thick fibrous mature connective tissue around atheroma (Masson trichrome staining) ([6]; ApoE−/− mice aorta): almost disappeared
Ang-II-induced plaque extension, micro/pseudo aneurysm formation and maximal aortic diameters ([6]; ApoE−/− mice, thoracic and abdominal aorta, six weeks, 0.5 mg/kg/day in drinking water): significant reduction
Ang-II induced severe atherosclerotic lesions (H&E staining of aorta) [6, 8]: complete protection
luminal diameter compared to Ang-II alone [6, 8]: significantly restored
